Laboratory results taken from ChEMBL document CHEMBL3352458, “Discovery of dual death-associated protein related apoptosis inducing protein kinase 1 and 2 inhibitors by a scaffold hopping approach” (J Med Chem, 2014).

Key:
[1] = target: T1, Serine/threonine-protein kinase 17B (Homo sapiens, UniProt O94768); test: Binding affinity to DRAK2 (unknown origin) ATP site
T1 sequence (O94768 whole entry): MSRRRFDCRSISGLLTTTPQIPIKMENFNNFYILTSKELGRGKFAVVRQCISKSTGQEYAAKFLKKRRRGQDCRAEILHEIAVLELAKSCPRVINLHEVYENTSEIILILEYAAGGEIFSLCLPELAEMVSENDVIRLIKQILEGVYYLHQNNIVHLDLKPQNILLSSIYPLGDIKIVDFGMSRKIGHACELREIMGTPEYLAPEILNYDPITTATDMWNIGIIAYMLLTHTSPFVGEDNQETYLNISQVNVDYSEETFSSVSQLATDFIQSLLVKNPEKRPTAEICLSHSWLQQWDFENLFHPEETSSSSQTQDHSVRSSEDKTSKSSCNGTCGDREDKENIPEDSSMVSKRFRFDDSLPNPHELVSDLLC

[2] = target: T1, Serine/threonine-protein kinase 17B; test: Inhibition of DRAK2 (unknown origin) using 250 uM ATP by biochemical assay
[3] = target: T1, Serine/threonine-protein kinase 17B; test: Inhibition of DRAK2 (unknown origin) using 500 uM ATP by biochemical assay
[4] = target: T1, Serine/threonine-protein kinase 17B; test: Inhibition of DRAK2 (unknown origin) using 10 uM ATP by biochemical assay
[5] = target: T1, Serine/threonine-protein kinase 17B; test: Inhibition of DRAK2 (unknown origin) using 1 uM ATP by biochemical assay
[6] = target: T1, Serine/threonine-protein kinase 17B; test: Inhibition of DRAK2 (unknown origin) using 100 uM ATP by biochemical assay
[7] = target: T1, Serine/threonine-protein kinase 17B; test: Inhibition of DRAK2 (unknown origin) using 50 uM ATP by biochemical assay
[8] = target: T1, Serine/threonine-protein kinase 17B; test: Inhibition of DRAK2 (unknown origin) using 33P-ATP after 30 mins by Trilux scintillation counting
[9] = target: T1, Serine/threonine-protein kinase 17B; test: Inhibition of DRAK2 (unknown origin) using 25 uM ATP by biochemical assay
[10] = target: T1, Serine/threonine-protein kinase 17B; test: Inhibition of DRAK2 (unknown origin) using 5 uM ATP by biochemical assay

Kd [1]	SMILES	also measured
2000 nM	COc1cc(-c2cnc3snc(NC(=O)C4CCCCC4)c3c2)ccc1O	
660 nM	COc1cc(-c2cnc3snc(NC(=O)C4CCCCC4)c3c2)ccc1N	
2300 nM	Nc1cccc(-c2cnc3snc(NC(=O)C4CCCCC4)c3c2)c1	
3200 nM	O=C(Nc1nsc2ncc(-c3ccc(O)cc3)cc12)C1CCCCC1	
1600 nM	COc1ccc(-c2cnc3snc(NC(=O)C4CCCCC4)c3c2)cc1OC	
1900 nM	O=C(Nc1nsc2ncc(-c3cccs3)cc12)C1CCCCC1	
1600 nM	O=C(Nc1nsc2ncc(-c3ccsc3)cc12)C1CCCCC1	
1600 nM	COc1ccc(-c2cnc3snc(NC(=O)C4CCC4)c3c2)cc1OC	
2200 nM	COc1ccc(-c2cnc3snc(NC(=O)C4CCCC4)c3c2)cc1OC	
530 nM	COc1ccc(-c2cnc3snc(NC(=O)C4CCCCCC4)c3c2)cc1OC	
7200 nM	COc1ccc(-c2cnc3snc(NC(=O)C4CCNCC4)c3c2)cc1OC	
510 nM	COc1ccc(-c2ccc3scc(NC(=O)C4CCCCC4)c3c2)cc1OC	
9 nM	COc1ccc(-c2cnc3scc(NC(=O)C4CCCCC4)c3c2)cc1OC	IC50 [2]: 1470 nM; IC50 [3]: 2220 nM; IC50 [4]: 530 nM; IC50 [5]: 370 nM; IC50 [6]: 990 nM; IC50 [7]: 720 nM; IC50 [8]: 860 nM; IC50 [9]: 650 nM; IC50 [10]: 510 nM
27 nM	COc1ccc(-c2cnc3scc(NC(=O)C4CCCCC4)c3n2)cc1OC	IC50 [8]: 1780 nM
33 nM	COc1ccc(-c2cnc3[nH]cc(NC(=O)C4CCCCC4)c3c2)cc1OC	
2700 nM	COc1ccc(-c2ccc3snc(NC(=O)C4CCCCC4)c3c2)cc1OC	
960 nM	COc1ccc(-c2ccc3onc(NC(=O)C4CCCCC4)c3c2)cc1OC	
180 nM	COc1ccc(-c2cnc3ncnc(NC(=O)C4CCCCC4)c3n2)cc1OC	
